From US6617131B2, “Nucleic acid molecule encoding the potassium channel protein, KCNQ5” (Aventis Pharma Deutschland GmbH, priority 2000, dated 2003)

What was measured:
KCNQ2 = KCNQ2 (Homo sapiens, UniProt O43526); details: cited from earlier work
hKCNQ5 = molecular target: T1, hKCNQ5 (Homo sapiens, UniProt Q9NR82); experiment: two-electrode voltage-clamp of KCNQ5 currents in Xenopus oocytes; format: cell-based
T1 construct: A composite full-length cDNA construct was assembled from two overlapping cDNA clones and subcloned into the Xenopus expression vector pSGEM; expressed in transfected cells; host or cells: Xenopus laevis oocytes injected with in vitro transcribed capped cRNA (vector pSGEM)
From the text: A, representative current traces from a KCNQ5 injected oocyte subjected to a pulse protocol that stepped the membrane potential from holding potential (−100 mV) to test pulses from −100 to +50 mV and back to holding potential. B, I-V relationships for KCNQ5 expressing oocytes (n=12) recorded using the protocol in A. C, tail current reversal potential of KCNQ 5 currents as a function of extracellular K^+ concentration. The dashed line is drawn according to the Nernst equation for a perfectly selective K^+ channel (n=5). D, effects of TEA, clofilium, quinidine, and chromanol 293 B on KCNQ 5 current. Superimposed currents were obtained during a 3 s depolarizing step from −100 mV to 0 mV, during the same experiment. […]
Xenopus laevis oocytes were obtained from tricaine anaesthetized animals. […] Macroscopic currents were recorded 2-4 days after injection. […]
The possible function of KCNQ5 as a potassium channel was addressed by electrophysiological analysis of Xenopus oocytes injected with KCNQ5 cRNA transcribed in vitro. Two to four days after injection novel currents were detected that were not observed in water-injected control oocytes. […] The two components of deactivation were determined at a repolarizing voltage of −100 mV following a 3s depolarizing step to +40 mV. […]

KCNQ3 = KCNQ3 (Rattus norvegicus, UniProt O88944); details: as reported; cited from earlier work
Chain of KCNQ3 (O88944 whole entry): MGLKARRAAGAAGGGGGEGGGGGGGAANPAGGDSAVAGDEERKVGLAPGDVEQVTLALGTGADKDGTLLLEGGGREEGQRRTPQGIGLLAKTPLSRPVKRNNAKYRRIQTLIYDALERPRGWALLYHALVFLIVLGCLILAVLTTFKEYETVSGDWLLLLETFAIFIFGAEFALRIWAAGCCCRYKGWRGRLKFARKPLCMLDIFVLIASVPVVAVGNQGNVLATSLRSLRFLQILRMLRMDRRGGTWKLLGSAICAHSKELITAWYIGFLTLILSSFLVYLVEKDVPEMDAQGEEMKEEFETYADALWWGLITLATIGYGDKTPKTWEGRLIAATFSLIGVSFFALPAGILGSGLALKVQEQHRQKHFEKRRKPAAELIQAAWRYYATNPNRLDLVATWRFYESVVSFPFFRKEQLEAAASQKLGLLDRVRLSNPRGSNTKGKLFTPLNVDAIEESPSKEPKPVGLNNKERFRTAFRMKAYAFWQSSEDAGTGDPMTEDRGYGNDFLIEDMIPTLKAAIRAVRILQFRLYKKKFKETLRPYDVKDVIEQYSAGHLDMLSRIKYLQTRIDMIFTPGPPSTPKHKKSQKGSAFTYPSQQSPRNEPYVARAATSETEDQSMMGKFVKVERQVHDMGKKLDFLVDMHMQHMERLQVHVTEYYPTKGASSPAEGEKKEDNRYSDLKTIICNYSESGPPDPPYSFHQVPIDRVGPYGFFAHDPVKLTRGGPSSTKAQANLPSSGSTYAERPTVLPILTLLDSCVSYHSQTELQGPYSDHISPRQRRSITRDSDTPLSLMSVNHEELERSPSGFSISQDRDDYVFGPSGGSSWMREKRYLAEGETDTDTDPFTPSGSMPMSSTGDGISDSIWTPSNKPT

Chain of KCNQ2 (O43526 whole entry): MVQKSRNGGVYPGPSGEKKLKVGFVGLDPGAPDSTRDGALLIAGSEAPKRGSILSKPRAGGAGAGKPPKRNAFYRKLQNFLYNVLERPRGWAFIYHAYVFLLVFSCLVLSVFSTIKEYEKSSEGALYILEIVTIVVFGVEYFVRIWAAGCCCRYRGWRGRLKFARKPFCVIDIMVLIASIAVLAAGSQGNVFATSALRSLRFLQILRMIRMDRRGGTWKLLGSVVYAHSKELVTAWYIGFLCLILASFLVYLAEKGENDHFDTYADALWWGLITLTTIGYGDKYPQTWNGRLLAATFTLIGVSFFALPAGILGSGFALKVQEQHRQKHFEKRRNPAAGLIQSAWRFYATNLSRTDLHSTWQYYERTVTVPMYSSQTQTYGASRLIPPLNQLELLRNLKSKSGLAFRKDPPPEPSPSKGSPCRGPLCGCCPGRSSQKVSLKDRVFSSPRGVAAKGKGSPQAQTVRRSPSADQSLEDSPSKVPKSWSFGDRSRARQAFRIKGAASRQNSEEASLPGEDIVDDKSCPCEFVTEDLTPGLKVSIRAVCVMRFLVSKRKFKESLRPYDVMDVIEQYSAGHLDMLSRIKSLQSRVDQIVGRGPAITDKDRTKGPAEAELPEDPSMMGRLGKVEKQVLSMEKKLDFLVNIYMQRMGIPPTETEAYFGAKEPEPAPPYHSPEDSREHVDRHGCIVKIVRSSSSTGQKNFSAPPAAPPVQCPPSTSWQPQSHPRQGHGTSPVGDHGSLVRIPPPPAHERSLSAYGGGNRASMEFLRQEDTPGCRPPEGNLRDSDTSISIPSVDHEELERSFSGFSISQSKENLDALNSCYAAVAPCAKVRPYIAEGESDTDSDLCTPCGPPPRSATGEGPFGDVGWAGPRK
T1 sequence (Q9NR82 whole entry): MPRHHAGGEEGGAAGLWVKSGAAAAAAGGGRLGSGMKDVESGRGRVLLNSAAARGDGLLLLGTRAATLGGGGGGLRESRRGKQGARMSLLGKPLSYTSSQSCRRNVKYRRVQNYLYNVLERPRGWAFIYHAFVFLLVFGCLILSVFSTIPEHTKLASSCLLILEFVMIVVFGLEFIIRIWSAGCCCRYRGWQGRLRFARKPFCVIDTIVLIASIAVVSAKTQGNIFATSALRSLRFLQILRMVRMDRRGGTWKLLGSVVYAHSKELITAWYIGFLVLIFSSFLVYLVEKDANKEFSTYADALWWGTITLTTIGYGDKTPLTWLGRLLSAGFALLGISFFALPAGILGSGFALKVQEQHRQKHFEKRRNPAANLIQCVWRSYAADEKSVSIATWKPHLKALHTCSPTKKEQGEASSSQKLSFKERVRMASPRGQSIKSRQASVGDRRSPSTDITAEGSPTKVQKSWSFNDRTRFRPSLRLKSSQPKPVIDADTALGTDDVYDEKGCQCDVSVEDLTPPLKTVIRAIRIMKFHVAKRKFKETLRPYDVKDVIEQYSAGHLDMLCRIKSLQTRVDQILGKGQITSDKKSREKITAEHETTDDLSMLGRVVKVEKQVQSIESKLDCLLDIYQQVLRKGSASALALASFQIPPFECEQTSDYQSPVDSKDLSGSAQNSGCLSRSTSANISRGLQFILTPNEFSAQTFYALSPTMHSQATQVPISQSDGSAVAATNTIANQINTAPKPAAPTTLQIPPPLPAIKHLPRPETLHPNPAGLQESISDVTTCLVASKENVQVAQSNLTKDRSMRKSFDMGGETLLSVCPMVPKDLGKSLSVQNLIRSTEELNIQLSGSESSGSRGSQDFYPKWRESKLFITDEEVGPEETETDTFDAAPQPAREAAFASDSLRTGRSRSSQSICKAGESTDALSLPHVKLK

In the case of `CCCCCCC[N+](CC)(CC)CCCCc1ccc(Cl)cc1` [Clofilium], the “inhibition of KCNQ2” value (KCNQ2; 10 μM) is given as “little inhibition”.
For `CC[N+](CC)(CC)CC` [TEA, tetraethylammonium], the “sensitivity of KCNQ5 currents to the blocker” value (hKCNQ5) is given as “insensitive”, the “sensitivity of KCNQ3 to the blocker” value (KCNQ3) is given as “insensitive” and the “sensitivity of KCNQ2 to the blocker” value (KCNQ2) is given as “high sensitivity”.
With `C=C[C@H]1C[N@@]2CC[C@H]1C[C@@H]2[C@@H](O)c1ccnc2ccc(OC)cc12` [quinidine] the “block of KCNQ5 currents” value (hKCNQ5; 300 μM, 3 s step from −100 mV to 0 mV) was 50%.
